This is an account of results in PubChem BioAssay AID256 (DTP/NCI, 2004).

Several values for one entry are separate records, joined by “and”; a condition that tells them apart may be missing. Identical values can stand only once. Toxic doses and inconclusive results are not listed.

The subject of the assay is CD2F1 mice, L1210 leukemia ip, survival T/C. In words: NCI In Vivo Anticancer Drug Screen. Data for tumor model L1210 Leukemia (intraperitoneal) in CD2F1 (CDF1) mice. The conditions noted are these: higher = longer survival. The procedure, abridged: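 Antitumor effect is scored in animals hosting a serially transplanted tumor. Values compare compound-dosed animals against vehicle-only controls as a simple quotient.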

Setting [1] is: endpoint: mean survival time, dose: 100.0 mg/kg/injection, schedule: Q01DX009 (ip), vehicle: saline with Tween-80.
[2] abbreviates: endpoint: mean survival time, dose: 200.0 mg/kg/injection, schedule: Q01DX009 (ip), vehicle: saline with Tween-80.
The mark [3] stands for this setting: endpoint: mean survival time, dose: 100.0 mg/kg/injection, schedule: Q01DX001 (ip), vehicle: saline with Tween-80.
Where [4] appears, read: endpoint: mean survival time, dose: 100.0 mg/kg/injection, schedule: Q04DX003 (ip), vehicle: saline with Tween-80.
The mark [5] stands for this setting: endpoint: mean survival time, dose: 200.0 mg/kg/injection, schedule: Q01DX001 (ip), vehicle: saline with Tween-80.
Where [6] appears, read: endpoint: mean survival time, dose: 200.0 mg/kg/injection, schedule: Q04DX003 (ip), vehicle: saline with Tween-80.
Setting [7] is: endpoint: mean survival time, dose: 400.0 mg/kg/injection, schedule: Q01DX001 (ip), vehicle: saline with Tween-80.
[8] abbreviates: endpoint: mean survival time, dose: 400.0 mg/kg/injection, schedule: Q04DX003 (ip), vehicle: saline with Tween-80.

Consider `CCn1c(C)[n+](CC)c2ccc(C(F)(F)F)cc21`, for which the T/C is 94 % of control (endpoint: mean survival time, dose: 75.0 mg/kg/injection, schedule: Q01DX001 (ip), vehicle: saline) and 100 % of control (endpoint: mean survival time, dose: 150.0 mg/kg/injection, schedule: Q01DX001 (ip), vehicle: saline).

Regarding `CCCCCCCCCN=C(N)CSSCC(N)=NCCCCCCCCC`, the T/C was 94 % of control (endpoint: mean survival time, dose: 12.5 mg/kg/injection, schedule: Q01DX001 (ip), vehicle: Klucel (hydroxypropylcellulose) (HPC)) and 101 % of control (endpoint: mean survival time, dose: 25.0 mg/kg/injection, schedule: Q01DX001 (ip), vehicle: Klucel (hydroxypropylcellulose) (HPC)).

Take `COC(=O)C1(C)CCC(=O)O1` (stereo not drawn): the T/C was 98 % of control (endpoint: mean survival time, dose: 100.0 mg/kg/injection, schedule: Q04DX002 (ip), vehicle: saline with Tween-80); 98 % of control (endpoint: mean survival time, dose: 200.0 mg/kg/injection, schedule: Q04DX002 (ip), vehicle: saline with Tween-80); 102 % of control (endpoint: mean survival time, dose: 400.0 mg/kg/injection, schedule: Q04DX002 (ip), vehicle: saline with Tween-80).

As to `Cc1cc(NCCN(C(C)C)C(C)C)nc(/N=C(\N)Nc2ccc(Cl)c(C(F)(F)F)c2)n1`, the T/C reads like this: (endpoint: mean survival time, dose: 1.25 mg/kg/injection, schedule: Q01DX009 (ip), vehicle: Klucel (hydroxypropylcellulose) (HPC)) 98 % of control; (endpoint: mean survival time, dose: 2.5 mg/kg/injection, schedule: Q01DX009 (ip), vehicle: Klucel (hydroxypropylcellulose) (HPC)) 103 % of control; (endpoint: mean survival time, dose: 5.0 mg/kg/injection, schedule: Q01DX009 (ip), vehicle: Klucel (hydroxypropylcellulose) (HPC)) 105 % of control; (endpoint: mean survival time, dose: 10.0 mg/kg/injection, schedule: Q01DX009 (ip), vehicle: Klucel (hydroxypropylcellulose) (HPC)) 101 % of control; (endpoint: mean survival time, dose: 20.0 mg/kg/injection, schedule: Q01DX009 (ip), vehicle: Klucel (hydroxypropylcellulose) (HPC)) 100 % of control; (endpoint: mean survival time, dose: 40.0 mg/kg/injection, schedule: Q01DX009 (ip), vehicle: Klucel (hydroxypropylcellulose) (HPC)) 88 % of control.

For `CCCCCCCCCCCCCC[N+]1(C)CCC[N+](C)(CCCCCCCCCCCCCC)CC1` (stereo not drawn), the T/C (endpoint: mean survival time, dose: 100.0 mg/kg/injection, schedule: Q04DX003 (ip), vehicle: other) was 103 % of control and the T/C (endpoint: mean survival time, dose: 200.0 mg/kg/injection, schedule: Q04DX003 (ip), vehicle: other) was 88 % of control.

Turning to `C/C=C1\CC2C=CC1C2` (stereo not drawn) (tested in a mixture with another compound), the T/C (endpoint: mean survival time, dose: 80.5 mg/kg/injection, schedule: Q01DX009 (ip), vehicle: saline with Tween-80) is 98 % of control and the T/C (endpoint: mean survival time, dose: 161.0 mg/kg/injection, schedule: Q01DX009 (ip), vehicle: saline with Tween-80) was 87 % of control.

Consider `N\C([S-])=N/N=C\C(=N/N=C(\N)[S-])C(O)C(O)C(O)CO.[Pd+2]` (stereo not drawn), for which the T/C was 112 % of control (endpoint: mean survival time, dose: 50.0 mg/kg/injection, schedule: Q01DX009 (ip), vehicle: saline with Tween-80); 104 % of control under setting [1]; 89 % of control under setting [2].

For the compound `O=C(N/N=C/c1ccc2c(c1)CCC2)c1cc2ccccc2cc1O`, the T/C runs as follows: under setting [3], 92 % of control; under setting [4], 95 % of control; under setting [5], 92 % of control; under setting [6], 94 % of control; under setting [7], 87 % of control; under setting [8], 89 % of control.

As for `NC(CCC(=O)OCc1ccccc1)C(=O)OCc1ccccc1` (stereo not drawn), the T/C (endpoint: mean survival time, dose: 50.0 mg/kg/injection, schedule: Q01DX009 (ip), vehicle: saline) is 106 % of control; the T/C (endpoint: mean survival time, dose: 100.0 mg/kg/injection, schedule: Q01DX009 (ip), vehicle: saline) is 93 % of control; the T/C (endpoint: mean survival time, dose: 100.0 mg/kg/injection, schedule: Q04DX003 (ip), vehicle: saline) is 97 % of control; the T/C (endpoint: mean survival time, dose: 200.0 mg/kg/injection, schedule: Q01DX009 (ip), vehicle: saline) is 87 % of control; the T/C (endpoint: mean survival time, dose: 200.0 mg/kg/injection, schedule: Q04DX003 (ip), vehicle: saline) was 108 % of control.

For the compound `CCC(CCC(C)C1CCC2C3CC=C4CC(I)CCC4(C)C3CCC12C)C(C)C` (stereo not drawn), the T/C under setting [3] was 90 % of control, the T/C under setting [5] is 90 % of control and the T/C under setting [7] is 94 % of control.

In the case of `O=S(=O)(O)SNCCN1CCOCC1`, the T/C runs as follows: (endpoint: mean survival time, dose: 6.25 mg/kg/injection, schedule: Q01DX009 (ip), vehicle: saline) 106 % of control; (endpoint: mean survival time, dose: 6.25 mg/kg/injection, schedule: Q04DX003 (ip), vehicle: saline) 104 % of control; (endpoint: mean survival time, dose: 12.5 mg/kg/injection, schedule: Q01DX009 (ip), vehicle: saline) 98 % of control; (endpoint: mean survival time, dose: 12.5 mg/kg/injection, schedule: Q04DX003 (ip), vehicle: saline) 102 % of control; (endpoint: mean survival time, dose: 25.0 mg/kg/injection, schedule: Q01DX009 (ip), vehicle: saline) 107 % of control; (endpoint: mean survival time, dose: 25.0 mg/kg/injection, schedule: Q04DX003 (ip), vehicle: saline) 101 % of control.

Take `O=C(CBr)c1cccc(OC(=O)c2ccccc2)c1`: the T/C by setting is: (endpoint: mean survival time, dose: 12.5 mg/kg/injection, schedule: Q01DX009 (ip), vehicle: saline with Tween-80) 100 % of control; (endpoint: mean survival time, dose: 12.5 mg/kg/injection, schedule: Q04DX003 (ip), vehicle: saline with Tween-80) 107 % of control; (endpoint: mean survival time, dose: 25.0 mg/kg/injection, schedule: Q01DX009 (ip), vehicle: saline with Tween-80) 100 % of control; (endpoint: mean survival time, dose: 25.0 mg/kg/injection, schedule: Q04DX003 (ip), vehicle: saline with Tween-80) 102 % of control; (endpoint: mean survival time, dose: 50.0 mg/kg/injection, schedule: Q04DX003 (ip), vehicle: saline with Tween-80) 113 % of control.

Consider `COc1cc(CC#N)ccc1C`, for which the T/C (endpoint: mean survival time, dose: 12.5 mg/kg/injection, schedule: Q04DX003 (ip), vehicle: acetone) was 97 % of control; the T/C (endpoint: mean survival time, dose: 25.0 mg/kg/injection, schedule: Q04DX003 (ip), vehicle: acetone) is 101 % of control; the T/C (endpoint: mean survival time, dose: 50.0 mg/kg/injection, schedule: Q04DX003 (ip), vehicle: acetone) is 102 % of control.

With `CC(=O)Oc1cccc(C#N)c1`, the T/C by setting is: under setting [1], 100 % of control; under setting [2], 100 % of control; (endpoint: mean survival time, dose: 400.0 mg/kg/injection, schedule: Q01DX009 (ip), vehicle: saline with Tween-80) 96 % of control.

On to `CCc1ncnc2cc(OCC3CO3)c(OC)cc12` (stereo not drawn), for which the T/C is 109 % of control (endpoint: median survival time, dose: 6.25 mg/kg/injection, schedule: Q01DX009 (ip), vehicle: saline with Tween-80); 112 % of control (endpoint: median survival time, dose: 6.25 mg/kg/injection, schedule: Q01DX009 (ip), vehicle: saline); 123 % of control (endpoint: median survival time, dose: 7.5 mg/kg/injection, schedule: Q01DX009 (ip), vehicle: suspension in saline); 154 % of control (endpoint: median survival time, dose: 10.0 mg/kg/injection, schedule: Q03DX003 (ip), vehicle: saline); 116 % of control (endpoint: median survival time, dose: 12.5 mg/kg/injection, schedule: Q01DX009 (ip), vehicle: saline with Tween-80); 121 % of control (endpoint: median survival time, dose: 12.5 mg/kg/injection, schedule: Q01DX009 (ip), vehicle: saline). Besides, the T/C (endpoint: median survival time, dose: 20.0 mg/kg/injection, schedule: Q01DX009 (ip), vehicle: other) was 156 % of control; the T/C (endpoint: median survival time, dose: 40.0 mg/kg/injection, schedule: Q01DX009 (ip), vehicle: other) was 166 % of control; the T/C (endpoint: median survival time, dose: 40.0 mg/kg/injection, schedule: Q04DX003 (ip), vehicle: other) is 112 % of control; the T/C (endpoint: median survival time, dose: 50.0 mg/kg/injection, schedule: Q01DX009 (ip), vehicle: DMSO) was 169 % of control; the T/C (endpoint: median survival time, dose: 50.0 mg/kg/injection, schedule: Q03DX003 (ip), vehicle: saline) was 152 % of control and 169 % of control; the T/C (endpoint: median survival time, dose: 80.0 mg/kg/injection, schedule: Q01DX001 (ip), vehicle: other) is 174 % of control. In addition, the T/C reads like this: (endpoint: median survival time, dose: 80.0 mg/kg/injection, schedule: Q01DX001 (ip), vehicle: water) 178 % of control; (endpoint: median survival time, dose: 80.0 mg/kg/injection, schedule: Q04DX003 (ip), vehicle: other) 153 % of control; (endpoint: median survival time, dose: 120.0 mg/kg/injection, schedule: Q01DX001 (ip), vehicle: other) 182 % of control; (endpoint: median survival time, dose: 120.0 mg/kg/injection, schedule: Q01DX001 (ip), vehicle: water) 160 % of control; (endpoint: median survival time, dose: 120.0 mg/kg/injection, schedule: Q04DX003 (ip), vehicle: other) 150 % of control.

As to `Cc1cccc[n+]1CC[n+]1ccccc1C`, the T/C is 100 % of control (endpoint: mean survival time, dose: 100.0 mg/kg/injection, schedule: Q01DX001 (ip), vehicle: saline) and 101 % of control (endpoint: mean survival time, dose: 200.0 mg/kg/injection, schedule: Q01DX001 (ip), vehicle: saline).

As to `Oc1c(Cl)c(Cl)c(Cl)c2ccccc12`, the T/C runs as follows: under setting [4], 100 % of control; under setting [6], 97 % of control; under setting [8], 100 % of control.
